Measurements from patent publication US8663669B2, “Pesticide treatment of soils or substrates with sulphur compounds” (Arkema France, priority 2002, dated 2014).

Experiments:
[1] = tested on: termite (Reticulitermes santonensis); assay: Insecticidal in vitro fumigation test on termites; format: in vivo; settings: 24 hours of fumigation, mortality counted at the end of 48 hours; 25° C.
Description: Dead wood infested with termites was collected from the soil on ground occupied by a colony. This dead wood serves as breeding medium. The breeding is maintained at a constant 25° C. and a day/night 12:12 alternation.
The insects are removed in an amount of 2 soldiers per 28 workers.
The tests are carried out in hermetically closed glass jars having a volume of 3 L and containing the insects.
The product to be tested is introduced through a hole 2 mm in diameter with the aid of a micropipette and deposited on a filter paper (2×5 cm: Whatman No. 1) suspended at the centre of the jar where it migrates by capillarity and vaporizes rapidly. The hole is hermetically closed again as quickly as possible.
The jars are placed for 24 hours in an incubator under the same breeding conditions.
At the end of 24 hours, after a few instants of aeration, a first count is made and then the insects are placed again under breeding conditions for another 24 hours. The counting of the mortality is therefore carried out at the end of 48 hours. […] Each test is carried out on a population of 30 to 50 insects and is accompanied by a control without treatment. Several repeats are carried out with doses close to the LC50.

Phytophthora cactorum = assay: Fungicidal efficacy by gassing, colonized millet grains; format: cell-based; set-up: Vitality score Nm (over 12 days): scale not given here; Reduction in viability RV / Reduction in vitality score RNm: unit not given here; settings: for Reduction in viability RV / Reduction in vitality score RNm: compared with the control
Description: These four organisms are the following:
Phytophthora cactorum, one of the best known representatives of the Phytophthora family, polyphagous fungi which attack mainly tomato, sweet pepper and strawberry plants, these three crops representing the majority of the worldwide consumption of methyl bromide. Phytophthora cactorum, in particular, attacks mainly the strawberry plant and fruit trees.
• Sclerotinia sclerotiorum: sclerotia • Sclerotium rolfsii: sclerotia • Rhizoctonia solani: colonized barley grains (mycelium and sclerotia) • Phytophthora cactorum: colonized millet grains (mycelium, sporangia and oospores) Preparation of the Fungi (24 h Before the Gassing Operation) 1. Preparation of the sclerotia of Sclerotinia sclerotiorum and of Sclerotium rolfsii: The fungi are cultured on malt agar medium until the sclerotia are obtained. The sclerotia are collected in a sterile manner and stored dry in empty Petri dishes until they are used. The sclerotia used for the trial are over 3 months old and are perfectly dormant. 2. Preparation of Phytophthora cactorum and of Rhizoctonia solani: The millet and barley used for the multiplication of the two fungi are moistened with ultrapure water by immersing for 24 hours. The grains are then slightly drained and then distributed into flasks and autoclaved (3 autoclavings at 110° C. for 20 minutes, 3 times at 24 hour intervals). Fragments of fungal culture are introduced into the flasks which are then incubated at 22° C.±2° C. (white light 18 h) until homogeneous colonization is obtained. The grains are then removed from the flasks in a sterile manner, dried in the sterile stream of a safety cabinet and then stored in the dry state until they are used. Conditions for Gassing and for Desorption
All the batches of fungi to be treated are placed for a few hours at the trial temperature (20° C.). Between 35 and 300 units of fungi or “propagules” (grains or sclerotia) are subjected to gassing during each trial.
Each fumigation chamber comprising to one or more species of fungi corresponds to a glass round-bottomed flask which is impervious to the gas and has a volume of 11 litres. Each round-bottomed flask is equipped with branch connections, one at the bottom for introducing the liquid DMDS, one at the top for collecting the air sample with a syringe.
Before introducing the gas, a partial vacuum (−500 mbar) is established in the round-bottomed flask with a vacuum pump. This makes it possible, on the one hand, to avoid the phenomenon of excess pressure due to the expansibility of DMDS in the round-bottomed flask and, on the other hand, to promote better homogeneity of the air-gas mixture in the first few seconds which follow injection. The DMDS (weighed accurately to the mg) is injected with a syringe, in liquid form, through the bottom branch connection, that is to say under the screen placed at half height of the round-bottomed flask and supporting the batches of fungi. After introducing the product, the internal pressure of the round-bottomed flask is re-established at atmospheric pressure. A magnetic stirrer operates during the entire duration of the treatment in order to properly homogenize the air-gas mixture.
At the end of the gassing, the cover for the round-bottomed flask is removed. One minute after this operation, the batches of fungi gassed are taken out and left in the open air for 15 minutes for desorption of the DMDS. They are then transferred into a Petri dish, the latter remaining open for 5 minutes to allow perfect desorption of the gas. […]

[2] = CT 1 050 g·h/m^3 (C 15.91 g/m^3, T 66 h)
[3] = CT 1 402 g·h/m^3 (C 21.24 g/m^3, T 66 h)
[4] = CT 1 450 g·h/m^3 (C 30.96 g/m^3, T 48 h)
[5] = CT 1 899 g·h/m^3 (C 28.77 g/m^3, T 66 h)
[6] = CT 1 981 g·h/m^3 (C 30.02 g/m^3, T 66 h)
[7] = CT 2 460 g·h/m^3 (C 51.25 g/m^3, T 48 h)
[8] = CT 2 837 g·h/m^3 (C 42.98 g/m^3, T 66 h)
[9] = CT 3 169 g·h/m^3 (C 48.02 g/m^3, T 66 h)
[10] = CT 3 467 g·h/m^3 (C 52.53 g/m^3, T 66 h)
[11] = CT 419 g·h/m^3 (C 17.46 g/m^3, T 24 h)
[12] = CT 625 g·h/m^3 (C 26.04 g/m^3, T 24 h)
[13] = CT 703 g·h/m^3 (C 29.29 g/m^3, T 24 h)
[14] = CT 907 g·h/m^3 (C 37.79 g/m^3, T 24 h)

SMILES: CSSC [DMDS, dimethyl disulphide]
- LC50 (Probits method) [1]: 0.095 g × 24 h/m^3
- Viability V (Phytophthora cactorum; [2]): 95%
- Vitality score Nm (over 12 days) (Phytophthora cactorum; [2]): 5.5
- Reduction in viability RV (Phytophthora cactorum; [2]): 5.0
- Reduction in vitality score RNm (Phytophthora cactorum; [2]): 43.1
- Viability V (Phytophthora cactorum; [3]): 97.8%
- Vitality score Nm (over 12 days) (Phytophthora cactorum; [3]): 6.6
- Reduction in viability RV (Phytophthora cactorum; [3]): 2.2
- Reduction in vitality score RNm (Phytophthora cactorum; [3]): 32.2
- Viability V (Phytophthora cactorum; [4]): 95%
- Vitality score Nm (over 12 days) (Phytophthora cactorum; [4]): 5.4
- Reduction in viability RV (Phytophthora cactorum; [4]): 3.4
- Reduction in vitality score RNm (Phytophthora cactorum; [4]): 40.7
- Viability V (Phytophthora cactorum; [5]): 97.8%
- Vitality score Nm (over 12 days) (Phytophthora cactorum; [5]): 5.6
- Reduction in viability RV (Phytophthora cactorum; [5]): 2.2
- Reduction in vitality score RNm (Phytophthora cactorum; [5]): 42.6
- Viability V (Phytophthora cactorum; [6]): 97.8%
- Vitality score Nm (over 12 days) (Phytophthora cactorum; [6]): 5.3
- Reduction in viability RV (Phytophthora cactorum; [6]): 2.2
- Reduction in vitality score RNm (Phytophthora cactorum; [6]): 45.7
- Viability V (Phytophthora cactorum; [7]): 43.3%
- Vitality score Nm (over 12 days) (Phytophthora cactorum; [7]): 1.7
- Reduction in viability RV (Phytophthora cactorum; [7]): 55.9
- Reduction in vitality score RNm (Phytophthora cactorum; [7]): 81.2
- Viability V (Phytophthora cactorum; [8]): 16.7%
- Vitality score Nm (over 12 days) (Phytophthora cactorum; [8]): 0.6
- Reduction in viability RV (Phytophthora cactorum; [8]): 83.3
- Reduction in vitality score RNm (Phytophthora cactorum; [8]): 93.6
- Viability V (Phytophthora cactorum; [9]): 1.1%
- Vitality score Nm (over 12 days) (Phytophthora cactorum; [9]): 0.05
- Reduction in viability RV (Phytophthora cactorum; [9]): 98.9
- Reduction in vitality score RNm (Phytophthora cactorum; [9]): 99.5
- Viability V (Phytophthora cactorum; [10]): 0%
- Vitality score Nm (over 12 days) (Phytophthora cactorum; [10]): 0
- Reduction in viability RV (Phytophthora cactorum; [10]): 100
- Reduction in vitality score RNm (Phytophthora cactorum; [10]): 100
- Viability V (Phytophthora cactorum; [11]): 91.7%
- Vitality score Nm (over 12 days) (Phytophthora cactorum; [11]): 7.7
- Reduction in viability RV (Phytophthora cactorum; [11]): 6.8
- Reduction in vitality score RNm (Phytophthora cactorum; [11]): 15.5
- Viability V (Phytophthora cactorum; [12]): 100%
- Vitality score Nm (over 12 days) (Phytophthora cactorum; [12]): 8.05
- Reduction in viability RV (Phytophthora cactorum; [12]): −1.7
- Reduction in vitality score RNm (Phytophthora cactorum; [12]): 11.9
- Viability V (Phytophthora cactorum; [13]): 100%
- Vitality score Nm (over 12 days) (Phytophthora cactorum; [13]): 8.3
- Reduction in viability RV (Phytophthora cactorum; [13]): −1.7
- Reduction in vitality score RNm (Phytophthora cactorum; [13]): 9.1
- Viability V (Phytophthora cactorum; [14]): 100%
- Vitality score Nm (over 12 days) (Phytophthora cactorum; [14]): 7.2
- Reduction in viability RV (Phytophthora cactorum; [14]): −1.7
- Reduction in vitality score RNm (Phytophthora cactorum; [14]): 21.2
